The target in assay [1] is T1, ROCK2 (Homo sapiens, UniProt O75116).
T1 construct: purchased Reaction Biology
Briefly: ROCK2 kinase assay (Reaction Biology Hot Spot kinase assay). Type of assay: biochemical. To be noted: purified kinase, 33P-ATP (10 μM), P81 filter-binding method. On the procedure: (§1) ROCK2 and ROCK] kinase assays
(§2) ROCK2 and ROCK1 enzyme potencies were determined by Reaction Biology (www.reactionbiology.com) using their Hot Spot kinase Assay. The base reaction buffer for the assay was 20 mM Hepes (pH 7.5), 10 mM MgCl2, 1 mM EGTA, 0.01% Brij35, 0.02 mg/mL BSA, 0.1 mM Na3VO4, and 2 mM DTT with a 1% DMSO concentration. Required cofactors were added individually to each kinase reaction. The substrate was freshly prepared in the reaction buffer described above, and then cofactors were delivered. The purified kinase was added to the substrate solution and then gently mixed. Compounds were added from 100% DMSO into the kinase reaction mixture by Acoustic technology (Echo550; nanoliter range) and then incubated for 20 min at room temperature. ^33P-ATP (10 μM) was delivered to initiate the reaction, and then the mixture was incubated again for two hours at room temperature. […] Nat. Biotechnol. 2011 Oct. 30; 29(11):1039-45. doi: 10.1038/nbt.2017.
(§3) The compounds were categorized based on IC50 value as “+”, “++”, “+++”, and “++++”. The category “+” refers to compounds with ROCK IC50 value of >10 μM. The category “++” refers to compounds with a ROCK IC50 value of 10 to 3 μM. The category “+++” refers to compounds with ROCK IC50 value of 3 to 0.3 μM. The category “++++” refers to compounds with a ROCK IC50 value of <0.3 μM. “ND” refers to “not determined.” The compound of an “Example Number” is the final product of an Example entitled the Example Number.

Assay [2] addresses T2, ROCK1 (Homo sapiens, UniProt Q13464).
T2 construct: purchased Reaction Biology
Briefly: ROCK1 kinase assay (Reaction Biology Hot Spot kinase assay). Type of assay: biochemical. The conditions noted are these: purified kinase, 33P-ATP (10 μM), P81 filter-binding method. On the procedure: as §1, §2, §3

T1 sequence (O75116 whole entry): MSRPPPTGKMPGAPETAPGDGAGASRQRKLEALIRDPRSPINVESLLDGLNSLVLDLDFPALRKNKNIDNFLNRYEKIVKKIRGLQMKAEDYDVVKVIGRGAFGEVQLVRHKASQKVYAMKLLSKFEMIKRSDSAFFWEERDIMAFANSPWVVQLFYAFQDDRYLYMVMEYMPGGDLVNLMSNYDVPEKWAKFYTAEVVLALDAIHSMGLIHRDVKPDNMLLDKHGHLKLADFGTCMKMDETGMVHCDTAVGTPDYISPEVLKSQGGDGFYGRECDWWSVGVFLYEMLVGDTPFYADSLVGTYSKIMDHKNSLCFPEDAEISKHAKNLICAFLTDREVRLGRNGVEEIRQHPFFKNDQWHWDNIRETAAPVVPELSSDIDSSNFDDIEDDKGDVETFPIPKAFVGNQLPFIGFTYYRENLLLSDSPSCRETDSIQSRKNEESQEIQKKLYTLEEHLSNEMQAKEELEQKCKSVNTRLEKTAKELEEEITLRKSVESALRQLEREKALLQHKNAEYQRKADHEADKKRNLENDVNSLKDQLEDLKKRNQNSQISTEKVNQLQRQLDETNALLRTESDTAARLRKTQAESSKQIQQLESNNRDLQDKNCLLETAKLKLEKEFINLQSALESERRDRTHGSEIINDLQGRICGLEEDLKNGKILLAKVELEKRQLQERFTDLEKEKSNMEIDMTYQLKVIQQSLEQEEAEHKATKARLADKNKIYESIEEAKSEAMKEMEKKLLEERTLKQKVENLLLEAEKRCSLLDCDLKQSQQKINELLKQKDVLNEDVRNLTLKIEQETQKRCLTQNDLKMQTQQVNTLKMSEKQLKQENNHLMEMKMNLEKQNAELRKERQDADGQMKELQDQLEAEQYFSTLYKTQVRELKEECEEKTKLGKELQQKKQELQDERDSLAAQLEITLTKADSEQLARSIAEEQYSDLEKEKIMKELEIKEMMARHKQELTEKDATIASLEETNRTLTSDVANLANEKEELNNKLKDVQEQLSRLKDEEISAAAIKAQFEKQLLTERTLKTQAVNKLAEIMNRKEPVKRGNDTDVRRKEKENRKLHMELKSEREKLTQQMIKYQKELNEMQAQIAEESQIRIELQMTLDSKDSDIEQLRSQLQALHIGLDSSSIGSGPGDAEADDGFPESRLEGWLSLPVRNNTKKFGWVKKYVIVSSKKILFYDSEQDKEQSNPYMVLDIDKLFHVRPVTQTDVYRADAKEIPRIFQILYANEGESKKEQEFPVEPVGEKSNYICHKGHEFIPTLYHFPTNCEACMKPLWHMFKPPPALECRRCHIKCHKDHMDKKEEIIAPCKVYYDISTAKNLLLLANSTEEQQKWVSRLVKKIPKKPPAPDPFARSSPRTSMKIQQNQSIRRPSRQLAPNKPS
T2 sequence (Q13464 whole entry): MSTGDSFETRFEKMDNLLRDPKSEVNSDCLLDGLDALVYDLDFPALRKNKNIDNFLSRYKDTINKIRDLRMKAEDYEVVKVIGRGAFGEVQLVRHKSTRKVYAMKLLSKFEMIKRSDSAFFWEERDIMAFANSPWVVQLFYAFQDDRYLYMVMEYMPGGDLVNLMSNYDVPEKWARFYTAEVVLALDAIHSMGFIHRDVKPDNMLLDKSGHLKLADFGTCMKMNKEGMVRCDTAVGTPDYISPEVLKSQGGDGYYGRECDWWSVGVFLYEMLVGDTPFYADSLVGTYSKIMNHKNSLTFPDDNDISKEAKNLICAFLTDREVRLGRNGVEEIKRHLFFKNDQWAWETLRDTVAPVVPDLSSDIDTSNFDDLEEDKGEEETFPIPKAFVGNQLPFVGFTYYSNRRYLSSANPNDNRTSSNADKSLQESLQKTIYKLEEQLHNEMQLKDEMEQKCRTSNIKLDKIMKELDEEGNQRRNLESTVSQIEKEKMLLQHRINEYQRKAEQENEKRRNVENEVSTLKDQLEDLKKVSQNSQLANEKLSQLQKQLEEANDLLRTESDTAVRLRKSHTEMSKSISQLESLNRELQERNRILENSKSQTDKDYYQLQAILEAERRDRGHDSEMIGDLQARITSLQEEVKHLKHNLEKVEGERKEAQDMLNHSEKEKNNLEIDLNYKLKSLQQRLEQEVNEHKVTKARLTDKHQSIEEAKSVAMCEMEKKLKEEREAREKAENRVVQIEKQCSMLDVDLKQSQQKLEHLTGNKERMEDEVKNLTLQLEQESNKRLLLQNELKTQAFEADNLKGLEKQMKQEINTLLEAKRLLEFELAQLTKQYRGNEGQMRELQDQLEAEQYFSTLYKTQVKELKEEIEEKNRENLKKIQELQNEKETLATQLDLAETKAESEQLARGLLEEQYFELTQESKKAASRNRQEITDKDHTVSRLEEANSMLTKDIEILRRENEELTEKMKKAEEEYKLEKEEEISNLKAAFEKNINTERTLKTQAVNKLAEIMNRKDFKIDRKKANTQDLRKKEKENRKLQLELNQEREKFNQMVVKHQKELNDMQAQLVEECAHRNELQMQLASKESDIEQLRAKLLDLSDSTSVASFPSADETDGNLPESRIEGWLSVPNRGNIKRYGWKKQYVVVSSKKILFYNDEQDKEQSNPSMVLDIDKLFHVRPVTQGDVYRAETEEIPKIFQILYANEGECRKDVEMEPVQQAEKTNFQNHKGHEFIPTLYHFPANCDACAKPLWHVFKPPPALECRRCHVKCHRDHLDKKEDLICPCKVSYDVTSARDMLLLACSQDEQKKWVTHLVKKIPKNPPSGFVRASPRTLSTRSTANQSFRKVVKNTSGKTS

Broadly, the IC50 is the concentration that gives 50% inhibition. With `Cc1cn(-c2ccc3c(c2)CCN(C(=O)C2CCCC2)C3)nc1Nc1ccc2[nH]ncc2c1Cl` [Example 81], the IC50 in assay [1] and in assay [2] was over 10000 nM each time.

`O=C(Nc1cccc(-c2nnc(Nc3ccc4[nH]ncc4c3)o2)c1)c1cccnc1` [Example 38]: the IC50 in assay [1] and in assay [2] was under 300 nM each time.

On to `Cn1cc(-c2nc3cc(-n4nc(Nc5ccc6[nH]ncc6c5Cl)c5ccccc54)ccc3o2)cn1` [Example 66], for which the 50% inhibitory concentration (IC50) in assay [1] and in assay [2] was over 10000 nM in each case.

`Cc1cn(-c2ccc3c(c2)OCCN3CC(=O)NC(C)C)nc1Nc1ccc2[nH]ncc2c1Cl` [Example 77, 2-[7-[3-[(4-chloro-1H-indazol-5-yl)amino]-4-methyl-pyrazol-1-yl]-2,3-dihydro-1,4-benzoxazin-4-yl]-N-isopropyl-acetamide]: the figures for the IC50 in assay [1] and in assay [2] were 300 to 3000 nM and 3000 to 10000 nM, respectively.

Take `Cc1cc(Nc2ccc3[nH]ncc3c2)nn1-c1cccc(NC(=O)c2c[nH]cn2)c1` [Example 5, N-(3-(3-((1H-indazol-5-yl)amino)-5-methyl-1H-pyrazol-1-yl)phenyl)-1H-imidazole-4-carboxamide]: the IC50 in assay [1] was under 300 nM; in assay [2], 300 to 3000 nM.

For `Cn1cc(C(=O)Nc2cccc(-n3nc(Nc4ccc5[nH]ncc5c4Cl)c4ncccc43)c2)cn1` [Example 56, N-(3-(3-((4-chloro-1H-indazol-5-yl)amino)-1H-pyrazolo[4,3-b]pyridin-1-yl)phenyl)-1-methyl-1H-pyrazole-4-carboxamide], the IC50 in assay [1] was under 300 nM; in assay [2] it was 300 to 3000 nM.

Consider `COc1cc(-n2cc(C)c(Nc3ccc4[nH]ncc4c3Cl)n2)ccc1C(=O)NC1CCN(C)C1` (centres unmarked) [Example 86], for which the 50% inhibitory concentration (IC50) in assay [1] and in assay [2] was under 300 nM each time.

As to `O=C(Nc1cccc(-c2noc(Nc3ccc4[nH]ncc4c3)n2)c1)c1cccnc1` [Example 44], the IC50 in assay [1] and in assay [2] was under 300 nM in each case.

For `Cn1cc(C(=O)Nc2cccc(-c3cc(Nc4ccc5[nH]ncc5c4Cl)no3)c2)cn1` [Example 74, N-(3-(3-((4-chloro-1H-indazol-5-yl)amino)isoxazol-5-yl)phenyl)-1-methyl-1H-pyrazole-4-carboxamide], the IC50 in assay [1] and in assay [2] was under 300 nM in each case.

Take `Cn1cc(C(=O)Nc2cccc(-n3nc(Nc4ccc5[nH]ncc5c4Cl)c4cnccc43)c2)cn1` [Example 58]: the IC50 in assay [1] and in assay [2] was under 300 nM each time.

As for `Cc1cn(-c2ccc3c(c2)CCNC3=O)nc1Nc1ccc2[nH]ncc2c1Cl` [Example 83, 6-(3-((4-chloro-1H-indazol-5-yl)amino)-4-methyl-1H-pyrazol-1-yl)-3,4-dihydroisoquinolin-1(2H)-one], the IC50 in assay [1] and in assay [2] was under 300 nM in each case.

On to `Cn1cc(C(=O)Nc2cccc(-n3nc(Nc4ccc5[nH]ncc5c4)c4ccccc43)c2)cn1` [Example 21], for which the IC50 lay within 300 to 3000 nM in assay [1] and 3000 to 10000 nM in assay [2].

Take `Cn1cc(C(=O)Nc2cc(-c3nnc(Nc4ccc5[nH]ncc5c4Cl)o3)cn(C)c2=O)cn1` [Example 67, N-[5-[5-[(4-chloro-1H-indazol-5-yl)amino]-1,3,4-oxadiazol-2-yl]-1-methyl-2-oxo-3-pyridyl]-1-methyl-pyrazole-4-carboxamide]: the IC50 in assay [1] and in assay [2] was under 300 nM each time.

Regarding `CC(C)NC(=O)COc1ccc(-n2ccc(Nc3ccc4[nH]ncc4c3Cl)n2)cc1F` [Example 75, 2-(4-(3-((4-chloro-1H-indazol-5-yl)amino)-1H-pyrazol-1-yl)-2-fluorophenoxy)—N-isopropylacetamide], the results for the IC50 in assay [1] and in assay [2] were under 300 nM and 300 to 3000 nM, respectively.

On to `COc1cc(-n2nc(Nc3ccc4[nH]ncc4c3Cl)c3ccccc32)ccc1OCC(=O)NC(C)C` [Example 18], for which the IC50 in assay [1] is 300 to 3000 nM; in assay [2] it was 3000 to 10000 nM.

Take `COc1ncc(C(=O)Nc2cccc(-n3nc(Nc4ccc5[nH]ncc5c4)c4ccccc43)c2)cn1` [Example 25]: the IC50 in assay [1] and in assay [2] was 300 to 3000 nM throughout.

As for `Cn1cc(C(=O)Nc2cccc(-n3nc(Nc4ccc5[nH]ncc5c4Cl)c4cccnc43)c2)cn1` [Example 60], the IC50 in assay [1] and in assay [2] was under 300 nM throughout.

As to `Cn1cc(C(=O)Nc2cc(-n3nc(Nc4ccc5[nH]ncc5c4Cl)c4ccccc43)cn(C)c2=O)cn1` [Example 69], the IC50 in assay [1] and in assay [2] was over 10000 nM throughout.

Regarding `COc1cc(-n2ccc(Nc3ccc4[nH]ncc4c3Cl)n2)ccc1OCC(=O)NC(C)C` [Example 12], the IC50 in assay [1] was under 300 nM; in assay [2], 300 to 3000 nM.

Regarding `O=C(Nc1cccc(-c2nc(Nc3ccc4[nH]ncc4c3)no2)c1)c1cn[nH]c1` [Example 40], the IC50 in assay [1] and in assay [2] was under 300 nM in each case.

With `Cn1cc(-c2nnc(Nc3ccc4[nH]ncc4c3Cl)o2)cc(NC(=O)c2ccccc2F)c1=O` [Example 52, N-(5-(5-((4-chloro-1H-indazol-5-yl)amino)-1,3,4-oxadiazol-2-yl)-1-methyl-2-oxo-1,2-dihydropyridin-3-yl)-2-fluorobenzamide], the IC50 in assay [1] and in assay [2] was under 300 nM throughout.

For `COc1cc(-n2cc(C)c(Nc3ccc4[nH]ncc4c3Cl)n2)ccc1C(=O)NCC(F)(F)F` [Example 88], the IC50 is under 300 nM in assay [1] and over 10000 nM in assay [2].

Take `COc1cc(-n2nc(Nc3ccc4[nH]ncc4c3)c3ccccc32)ccc1OCC(=O)NC(C)C` [Example 17]: the IC50 was under 300 nM in assay [1] and 300 to 3000 nM in assay [2].

Turning to `Cn1cc(C(=O)Nc2cccc(-c3nc(Nc4ccc5[nH]ncc5c4Cl)no3)c2)cn1` [Example 63, N-(3-(3-((4-chloro-1H-indazol-5-yl)amino)-1,2,4-oxadiazol-5-yl)phenyl)-1-methyl-1H-pyrazole-4-carboxamide], the IC50 in assay [1] and in assay [2] was under 300 nM each time.

Consider `Cc1cn(-c2cccc(NC(=O)c3cccnc3)c2)nc1Nc1ccc2[nH]ncc2c1` [Example 4, N-(3-(3-((1H-indazol-5-yl)amino)-4-methyl-1H-pyrazol-1-yl)phenyl)nicotinamide], for which the IC50 in assay [1] and in assay [2] was under 300 nM in each case.

Consider `COc1cc(-n2cc(C)c(Nc3ccc4[nH]ncc4c3Cl)n2)ccc1OCC(=O)NC(C)C` [Example 13], for which the IC50 was under 300 nM in assay [1] and 300 to 3000 nM in assay [2].

With `Cc1cn(-c2ccc3c(c2)CCN(S(=O)(=O)C2CC2)C3)nc1Nc1ccc2[nH]ncc2c1Cl` [Example 82], the results for the IC50 in assay [1] and in assay [2] were under 300 nM and over 10000 nM, respectively.

Turning to `COc1cc(-n2nc(Nc3ccc4[nH]ncc4c3Cl)cc2C)ccc1OCC(=O)NC(C)C` [Example 14], the IC50 in assay [1] is 300 to 3000 nM; in assay [2], over 10000 nM.

With `O=C(Cc1ncc[nH]1)Nc1cccc(-n2nc(Nc3ccc4[nH]ncc4c3)c3ccccc32)c1` [Example 27], the IC50 in assay [1] lay within 300 to 3000 nM; in assay [2] it was 3000 to 10000 nM.

Consider `O=C(Nc1cccc(-n2ccc(Nc3ccc4[nH]ncc4c3)n2)c1)c1cccnc1` [Example 6], for which the IC50 in assay [1] and in assay [2] was 300 to 3000 nM throughout.

As to `Cc1cn(-c2ccc3c(c2)CCN(C(=O)C2CC2)C3)nc1Nc1ccc2[nH]ncc2c1Cl` [Example 79, [6-[3-[(4-chloro-1H-indazol-5-yl)amino]-4-methyl-pyrazol-1-yl]-3,4-dihydro-1H-isoquinolin-2-yl]-cyclopropyl-methanone], the IC50 in assay [1] was under 300 nM; in assay [2], 3000 to 10000 nM.

Take `O=C(Nc1cccc(-c2cc(Nc3ccc4[nH]ncc4c3)no2)c1)c1c[nH]cn1` [Example 34, N-(3-(3-((1H-indazol-5-yl)amino)isoxazol-5-yl)phenyl)-1H-imidazole-4-carboxamide]: the IC50 in assay [1] and in assay [2] was under 300 nM in each case.

For the compound `O=C(Nc1cccc(-n2nc(Nc3ccc4[nH]ncc4c3)c3ccccc32)c1)c1c[nH]cn1` [Example 22], the IC50 in assay [1] was 300 to 3000 nM; in assay [2], 3000 to 10000 nM.

Regarding `Cn1cc(C(=O)Nc2ccnc(-n3nc(Nc4ccc5[nH]ncc5c4Cl)c4ccccc43)c2)cn1` [Example 47], the IC50 in assay [1] and in assay [2] was over 10000 nM throughout.

On to `Cn1cc(C(=O)Nc2cccc(-c3cc(Nc4ccc5[nH]ncc5c4)no3)c2)cn1` [Example 33], for which the IC50 in assay [1] and in assay [2] was under 300 nM in each case.

`Cn1cc(C(=O)Nc2cc(-n3nc(Nc4ccc5[nH]ncc5c4Cl)c4ccccc43)ccc2F)cn1` [Example 57, N-(5-(3-((4-chloro-1H-indazol-5-yl)amino)-1H-indazol-1-yl)-2-fluorophenyl)-1-methyl-1H-pyrazole-4-carboxamide]: the IC50 in assay [1] and in assay [2] was under 300 nM each time.

For the compound `Cn1cc(C(=O)Nc2cccc(-c3nnc(Nc4ccc5[nH]ncc5c4)o3)c2)cn1` [Example 36], the IC50 in assay [1] and in assay [2] was under 300 nM each time.

The values are drawn from patent publication US20240368132A1, “ROCK2 INHIBITORS AND USES THEREOF” (President and Fellows of Harvard College, priority 2021, published 2024).
